# Measurements reported in patent US20200016159A1, “N3-CYCLICALLY SUBSTITUTED THIENOURACILS AND USE THEREOF” (Bayer Aktiengesellschaft, priority 2016, published 2020).
# Legend:
# [1] = biological target: T1, human adenosine A2b receptor (Homo sapiens, UniProt P29275); assay: Cellular in vitro reporter gene test for A2b receptor activity (antagonism of NECA); type: cell-based; design: expressed in transfected cells; host or cells: CHO-K1 (Chinese hamster ovary) with CRE-luciferase reporter; conditions: recombinant CHO-K1 cells, CRE-luciferase reporter, co-incubation with EC50 concentration of NECA, 3 hours
# T1 sequence (P29275 1-332): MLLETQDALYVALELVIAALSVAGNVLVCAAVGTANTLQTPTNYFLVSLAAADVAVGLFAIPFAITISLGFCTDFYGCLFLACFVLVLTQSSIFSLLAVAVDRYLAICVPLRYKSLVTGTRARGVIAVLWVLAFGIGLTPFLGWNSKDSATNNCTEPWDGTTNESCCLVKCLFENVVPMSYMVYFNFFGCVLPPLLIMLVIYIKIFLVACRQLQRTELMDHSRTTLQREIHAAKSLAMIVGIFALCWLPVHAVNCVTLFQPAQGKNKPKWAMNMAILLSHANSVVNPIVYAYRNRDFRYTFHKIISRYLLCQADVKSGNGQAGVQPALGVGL
# Summary of the method: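 CHO-K1 cells expressing recombinant human A2b receptor plus a CRE-driven firefly luciferase reporter. Compounds co-incubated with NECA at its same-day EC50 concentration; luminescence read 3 hours after NECA addition. IC50 values, sometimes means of several determinations rounded to two significant figures.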
# [2] = tested on: IL-6 release by LL29 fibroblasts; assay: NECA-induced IL-6 release by LL29 fibroblasts; type: cell-based; conditions: Homo sapiens, Fibroblast; LL29 cells stimulated with NECA (10 μM), 24 hours, IL-6 ELISA of supernatant
# Procedure: Stimulation of fibroblasts with adenosine or the adenosine analog 5′-N-ethylcarboxamidoadenosine (NECA) leads to release of the pro-inflammatory and pro-fibrotic cytokine IL-6 which can be prevented by inhibition of the A2b receptor.
# Accordingly, confluent cells of the human fibroblast cell line LL29 were treated with the test substances and stimulated with NECA (10 μM). After an incubation time of 24 hours, the cell supernatant is removed and human IL-6 in the cell supernatant is determined by ELISA (Quantikine® IL6 ELISA, R&D Systems, Minneapolis, USA).
# (§1) Table 3 below lists the IC50 values obtained in this way for inhibition of IL-6 release for representative working examples (in some cases as means of a plurality of independent individual determinations and rounded to two significant figures; it may also be the case here that various independent preparations of the respective working example have been used): […]
# [3] = biological target: T2, human adenosine A2a receptor (Homo sapiens, UniProt P29274); assay: Adenosine receptor radioligand binding assay, A2a receptor ([3H]-CGS 21680, HEK293 membranes); conditions: membrane preparations of HEK293 cells, radioligand [3H]-CGS 21680
# T2 construct: expressed in transfected cells; host or cells: HEK293
# Procedure: (§2) The binding properties of the test compounds on adenosine receptors were determined in binding studies with radioligands. For this purpose, membrane preparations of the human adenosine receptor subtypes were produced from cell lines having recombinant receptor expression (CHO cells for the A1 receptor, HEK293 cells for the A2a, A2b and A3 receptors). The following radioligands were used in the experiments: [^3H]-DPCPX for the A1 receptor, [^3H]-CGS 21680 for the A2a receptor, [^3H]-CPX for the A2b receptor and [^125I]-AB-MECA for the A3 receptor. The test substances were each tested in 8 different concentrations and 2 repeat tests per concentration. The displacement of the particular radioligand by the test compound was expressed as percentage inhibition of the specific binding of the controls.
# (§3) The IC50 values (concentration which brings about half-maximum inhibition of the specific binding of the controls) and the Hill coefficients (nH) were determined by a non-linear regression analysis, using the competition curves obtained from the mean values of the repeat tests and conducting a curve fit according to the Hill equation:
# (§4) (Y=specific binding; A=left-hand asymptote of the curve; D=right-hand asymptote of the curve; C=substance concentration; C50=IC50; nH=rise factor).
# (§5) The inhibition constant (Ki) was calculated by the Cheng-Prusoff equation:
# (§6) (L=concentration of the radioligand in the assay; KD=receptor affinity of the radioligand for the receptor, determined with a Scatchard plot).
# (§7) [Literature: A1 receptor: Townsend-Nicholson, A. und Schofield, P. R., J. Biol. Chem. 269: 2373-2376 (1994); A2a receptor: Luthin, D. R. et al., Mol. Pharmacol. 47: 307-313 (1995); A2b receptor: Stehle, J. H. et al., Mol. Endocrinol. 6: 384-393 (1992) and Linden et al., Mol. Pharmacol. 56: 705-713 (1999); A3 receptor: Salvatore, C. A. et al., Proc. Natl. Acad. Sci. U.S.A. 90: 10365-10369 (1993) and Jacobson, K. A. et al., Neuropharmacology 36: 1157-1165 (1997)].
# as §1, with “2” for “3”, “K1” for “IC50”, “thus determined from these binding assays” for “obtained in this way for inhibition of IL-6 release”
# [4] = biological target: T1, human adenosine A2b receptor; assay: Adenosine receptor radioligand binding assay, A2b receptor ([3H]-CPX, HEK293 membranes); design: expressed in transfected cells; conditions: membrane preparations of HEK293 cells, radioligand [3H]-CPX
# Procedure: as §2, §3, §4, §5, §6, §7
# as §1, with “2” for “3”, “K1” for “IC50”, “thus determined from these binding assays” for “obtained in this way for inhibition of IL-6 release”
# [5] = biological target: T3, human adenosine A1 receptor (Homo sapiens, UniProt P30542); assay: Adenosine receptor radioligand binding assay, A1 receptor ([3H]-DPCPX, CHO membranes); conditions: membrane preparations of CHO cells, radioligand [3H]-DPCPX
# T3 construct: expressed in transfected cells; host or cells: CHO
# T3 sequence (P30542 1-326): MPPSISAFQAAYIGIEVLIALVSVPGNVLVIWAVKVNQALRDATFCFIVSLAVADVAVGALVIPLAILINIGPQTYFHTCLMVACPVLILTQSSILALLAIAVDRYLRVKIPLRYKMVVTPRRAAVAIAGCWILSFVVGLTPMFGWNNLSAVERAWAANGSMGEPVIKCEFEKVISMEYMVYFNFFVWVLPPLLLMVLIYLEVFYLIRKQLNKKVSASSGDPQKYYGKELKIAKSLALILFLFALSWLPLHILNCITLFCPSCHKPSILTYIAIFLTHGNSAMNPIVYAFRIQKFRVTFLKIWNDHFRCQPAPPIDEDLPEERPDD
# Procedure: as §2, §3, §4, §5, §6, §7
# as §1, with “2” for “3”, “K1” for “IC50”, “thus determined from these binding assays” for “obtained in this way for inhibition of IL-6 release”
# [6] = biological target: T4, human adenosine A3 receptor (Homo sapiens, UniProt P0DMS8); assay: Adenosine receptor radioligand binding assay, A3 receptor ([125I]-AB-MECA, HEK293 membranes); conditions: membrane preparations of HEK293 cells, radioligand [125I]-AB-MECA
# T4 construct: expressed in transfected cells; host or cells: HEK293
# T4 sequence (P0DMS8 1-318): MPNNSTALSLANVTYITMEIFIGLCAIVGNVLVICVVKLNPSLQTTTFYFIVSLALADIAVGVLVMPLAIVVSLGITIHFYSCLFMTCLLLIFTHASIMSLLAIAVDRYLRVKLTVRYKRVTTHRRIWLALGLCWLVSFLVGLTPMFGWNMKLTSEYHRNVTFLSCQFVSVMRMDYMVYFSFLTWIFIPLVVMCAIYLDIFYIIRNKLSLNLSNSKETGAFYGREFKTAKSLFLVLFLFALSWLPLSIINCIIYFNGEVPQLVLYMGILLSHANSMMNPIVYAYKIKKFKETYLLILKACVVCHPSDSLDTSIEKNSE
# Procedure: as §2, §3, §4, §5, §6, §7
# as §1, with “2” for “3”, “K1” for “IC50”, “thus determined from these binding assays” for “obtained in this way for inhibition of IL-6 release”
# [7] = tested on: bladder tumours and breast tumours; conditions: animal models of bladder tumours and breast tumours; cited from earlier work
# T2 sequence (P29274 whole entry): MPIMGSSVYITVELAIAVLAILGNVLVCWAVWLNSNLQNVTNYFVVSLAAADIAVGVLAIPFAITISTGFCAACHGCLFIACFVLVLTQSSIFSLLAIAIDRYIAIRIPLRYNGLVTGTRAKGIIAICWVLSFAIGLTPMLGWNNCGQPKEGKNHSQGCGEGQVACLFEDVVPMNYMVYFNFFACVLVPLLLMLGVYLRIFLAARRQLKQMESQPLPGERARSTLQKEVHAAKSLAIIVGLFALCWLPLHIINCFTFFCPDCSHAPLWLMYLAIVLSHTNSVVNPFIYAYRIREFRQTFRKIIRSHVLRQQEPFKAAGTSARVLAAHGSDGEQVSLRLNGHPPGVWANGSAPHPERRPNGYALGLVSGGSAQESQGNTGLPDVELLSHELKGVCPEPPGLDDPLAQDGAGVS
SMILES,IC50 [1] [nM],IC50 [2] [nM],Ki [3] [nM],Ki [4] [nM],Ki [5] [nM],Ki [6] [nM],further results
"COCCn1c(=O)n(C2CC2)c(=O)c2c(C)c(CN3CCNC3=NC(=O)OC)sc21 [Example 26, Methyl [1-{[3-cyclopropyl-1-(2-methoxyethyl)-5-methyl-2,4-dioxo-1,2,3,4-tetrahydrothieno[2,3-d]pyrimidin-6-yl]methyl}imidazolidin-2-ylidene]carbamate]",8.3,12,–,–,–,–,–
"COCCn1c(=O)n(C2(C)CC2)c(=O)c2c(C)c(CN3CCNC3=O)sc21 [Example 70, 1-(2-Methoxyethyl)-5-methyl-3-(1-methylcyclopropyl)-6-[(2-oxoimidazolidin-1-yl)methyl]thieno[2,3-d]pyrimidine-2,4(1H,3H)-dione]",15,–,4800,5.7,> 10000,> 10000,–
"Cc1c(CN2CCNC2=O)sc2c1c(=O)n(C1CC1)c(=O)n2CCCF [Example 5, 3-Cyclopropyl-1-(3-fluoropropyl)-5-methyl-6-[(2-oxoimidazolidin-1-yl)methyl]thieno[2,3-d]pyrimidine-2,4(1H,3H)-dione]",12,21,–,–,–,–,–
"COCCn1c(=O)n(C2CC2C)c(=O)c2c(C)c(CN3CCNC3=O)sc21 (single isomer, unassigned) [Example 96, 1-(2-Methoxyethyl)-5-methyl-3-(2-methylcyclopropyl)-6-[(2-oxoimidazolidin-1-yl)methyl]thieno[2,3-d]pyrimidine-2,4(1H,3H)-dione]",3.8,4.9,480,3.7,3400,3700,–
"Cc1c(Cn2nc[nH]c2=O)sc2c1c(=O)n(C1(C)CC1)c(=O)n2CCOC(F)(F)F [Example 76, 5-Methyl-3-(1-methylcyclopropyl)-6-[(5-oxo-4,5-dihydro-1H-1,2,4-triazol-1-yl)methyl]-1-[2-(trifluormethoxy)ethyl]thieno[2,3-d]pyrimidine-2,4(1H,3H)-dione]",8.5,11,–,–,–,–,–
CCCn1c(=O)n(C2CC2)c(=O)c2[nH]c(-c3ccc(N(CC)C(=O)c4cccnc4)nc3)nc21 [ATL801],–,–,–,–,–,–,interferon γ level [7]: significant increase; metastasis [7]: distinct reduction in metastasis; number of tumour antigen-presenting dendritic cells [7]: increase; tumour growth [7]: slowing of tumour growth
"Cc1c(Cn2nc[nH]c2=O)sc2c1c(=O)n(C1CC1)c(=O)n2CCOC(F)(F)F [Example 36, 3-Cyclopropyl-5-methyl-6-[(5-oxo-4,5-dihydro-1H-1,2,4-triazol-1-yl)methyl]-1-[2-(trifluoromethoxy)ethyl]thieno[2,3-d]pyrimidine-2,4(1H,3H)-dione]",4.4,6.1,950,2.6,2600,> 50000,melting point: 199 °C
"Cc1c(Cn2nc[nH]c2=O)sc2c1c(=O)n(C1CC1)c(=O)n2CCC(F)(F)F [Example 15, 3-Cyclopropyl-5-methyl-6-[(5-oxo-4,5-dihydro-1H-1,2,4-triazol-1-yl)methyl]-1-(3,3,3-trifluoropropyl)thieno[2,3-d]pyrimidine-2,4(1H,3H)-dione]",14,–,3000,3.6,8000,> 10000,–
"COCCn1c(=O)n([C@H]2C[C@@H]2C)c(=O)c2c(C)c(CN3CCNC3=O)sc21 [Example 315, 1-(2-Methoxyethyl)-5-methyl-3-[(1S,2S)-2-methylcyclopropyl]-6-[(2-oxoimidazolidin-1-yl)methyl]thieno[2,3-d]pyrimidine-2,4(1H,3H)-dione]",3.8,4.9,480,3.7,3400,3700,–
"Cc1c(Cn2nc[nH]c2=O)sc2c1c(=O)n([C@H]1C[C@@H]1C)c(=O)n2CC1CCC1 [Example 327, 1-(Cyclobutylmethyl)-5-methyl-3-[(1S,2S)-2-methylcyclopropyl]-6-[(5-oxo-4,5-dihydro-1H-1,2,4-triazol-1-yl)methyl]thieno[2,3-d]pyrimidine-2,4(1H,3H)-dione]",8.5,–,–,–,–,–,–
"COCCn1c(=O)n(C2CC2C)c(=O)c2c(C)c(CN3CCNC3=O)sc21 (single isomer, unassigned) [Example 260, 1-(2-Methoxyethyl)-5-methyl-3-(2-methylcyclopropyl)-6-[(2-oxoimidazolidin-1-yl)methyl]thieno[2,3-d]pyrimidine-2,4(1H,3H)-dione]",82,–,–,–,–,–,–
"Cc1c(Cn2nc[nH]c2=O)sc2c1c(=O)n(C1CCCC1)c(=O)n2CCC(F)(F)F [Example 188, 3-Cyclopentyl-5-methyl-6-[(5-oxo-4,5-dihydro-1H-1,2,4-triazol-1-yl)methyl]-1-(3,3,3-trifluoropropyl)thieno[2,3-d]pyrimidine-2,4(1H,3H)-dione]",100,–,–,–,–,–,–
"Cc1c(CN2CCNC2=O)sc2c1c(=O)n([C@H]1C[C@@H]1C)c(=O)n2CC1CCC(F)(F)C1 (single isomer, unassigned) [Example 256]",5.5,–,–,–,–,–,–
"Cc1c(CN2CCNC2=S)sc2c1c(=O)n(C1CC1)c(=O)n2CCCF [Example 6, 3-Cyclopropyl-1-(3-fluoropropyl)-5-methyl-6-[(2-thioxoimidazolidin-1-yl)methyl]thieno[2,3-d]pyrimidine-2,4(1H,3H)-dione]",12,–,–,–,–,–,–
